Assay results published in US20260258050A1, “IMMUNOMODULATOR” (HITGEN INC., priority 2023, published 2026).
pIC50: −log10 of the molar value.

molecular target: T1, Human IL-17A (Homo sapiens, UniProt Q16552); assay: IL-17A enzyme-linked immunosorbent assay (competitive ELISA, IL-17A/IL-17Ra receptor-ligand binding); design: purchased Sino Biological Inc. 12047-H07B; conditions: human IL-17A coated plate, human IL-17Ra, read-out: IC50, inhibitory activity of compounds on human IL-17A
T1 sequence (Q16552 20-155 limits assumed): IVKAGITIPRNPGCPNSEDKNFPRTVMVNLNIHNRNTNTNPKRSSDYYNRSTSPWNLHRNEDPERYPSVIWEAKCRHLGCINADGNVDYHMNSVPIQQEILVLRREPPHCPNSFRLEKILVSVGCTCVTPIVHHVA
Experimental: Experimental Example 1 IL-17A Enzyme-Linked Immunosorbent Assay (ELISA)
The inhibitory effects of human IL-17A inhibitors on receptor-ligand binding were quantitatively determined by a competitive enzyme-linked immunosorbent assay (ELISA). The ELISA was performed through the following steps.
Human IL-17A (Sino Biological Inc., Cat #12047-H07B) was diluted with coating buffer (50 mM phosphate-buffered saline (PBS), pH 7.4) to give an IL-17A concentration of 0.2 μg/ml. 100 μL of the resulting solution was added to each well of a 96-well plate, and the plate was incubated at 37° C. for 30 min. In a blank group, 100 100 μL of the coating buffer was added instead of the IL-17A solution.
The plate was washed four times with 10 mM phosphate-buffered saline containing 0.05% Tween-20 (PBST, pH 7.4). 200 μL of PBST was used per well for each wash. After the final wash, the plate was tapped dry on absorbent paper.
Fresh 5% (w/v) skim milk solution was prepared before the experiment. For example, 5 g of skim milk powder (Bio-Rad, 170-6404) was completely dissolved in 100 mL of 10 mM PBST. 200 μL of the 5% (w/v) skim milk solution was added to each well, and the plate was incubated on a shaker at 25° C. for 30 min.
(S4) Preparation of 100× to-be-Tested Compound Solutions
During step (S3), the to-be-tested compound solutions were prepared, respectively. Each powdered compound was dissolved in dimethyl sulfoxide (DMSO) to reach a storage concentration of 10 mM. The to-be-tested compound solutions were then serially diluted four-fold with DMSO to obtain nine storage concentrations ranging from […].
(S6) Pre-incubation of IL-17A with to-be-tested compound solutions
89 μL of PBST and 1 μL of each of the to-be-tested compound solutions were added to each well and mixed. The plate was pre-incubated at 25° C. for 10 min. In the blank group and the control group, 1 μL of DMSO was added instead of the to-be-tested compound solutions.
(S7) Incubation with Human Interleukin-17 Receptor a (IL-17Ra)
10 μL of 16 nM human IL-17Ra (Sino Biological Inc., Cat #10895-H03H) was added, followed by incubation on a shaker at 25° C. for 30 min. The receptor solution was prepared in 10 mM PBST.
(S9) Incubation with Horseradish Peroxidase-Conjugated Antibody
100 μL of mouse anti-Fc tag horseradish peroxidase (HRP)-conjugated antibody (Sino Biological Inc., Cat #10702-MM01T-H) was added to each well. The plate was incubated on a shaker at 25° C. for 30 min. The antibody was diluted with 5% (w/v) skim milk solution at 1:5,000 (v/v).
100 μL of 3,3′,5,5′-tetramethylbenzidine (TMB) substrate solution (BD, Cat #555214) was added to each well. Substrate A and substrate B were freshly mixed at a volume ratio of 1:1 before use. The plate was incubated in the dark at 25° C. for 5-15 min.
(S12) Termination and Detection
The color reaction was terminated by addition of 2.5 M hydrochloric acid (HCl). Absorbance was measured at 450 nm using a BMG PHERStar microplate reader.
(S13) Calculation of Half-Maximal Inhibitory Concentration (IC50)
The relative percent residual activity at each compound concentration was calculated according to Equation 1. The IC50 value of each test compound was then calculated in GraphPad 6 using the equation for log(inhibitor) versus normalized response with variable slope, as shown in Equation 2.
relative percent residual activity (%)=[(absorbance of sample−absorbance of blank group)/(absorbance of control group−absorbance of blank group)]%. Equation 1: […]
The compounds prepared in the above examples were tested for IL-17A inhibitory activity according to the above method.

Structure (SMILES)	pIC50
CC(C)=C(F)C(=O)N[C@H](C(=O)Nc1cc2c(cc1F)-c1c(n[nH]c1C)CC(=O)N(C(C)C(F)(F)F)C2)C(C1CC1)C1CC1 (mixture of isomers) [compound 252]	≥ 7.30
C=C(F)C(=O)N[C@H](C(=O)Nc1cc2c(cc1F)-c1c(n[nH]c1C)CC(=O)N(C(C)C(F)(F)F)C2)C(C1CC1)C1CC1 (mixture of isomers) [compound 253]	≥ 7.30
COCCN1Cc2cc(NC(=O)[C@@H](NC(=O)c3nonc3C)C(C3CC3)C3CC3)c(F)cc2-c2c(n[nH]c2C)CC1=O [compound 141]	≥ 7.30
Cc1nonc1C(=O)N[C@H](C(=O)Nc1ccc2c(c1)COCCc1n[nH]c(C)c1-2)C(C1CC1)C1CC1 [compound 4]	≥ 7.30
Cc1[nH]nc2c1-c1cc(F)c(NC(=O)[C@@H](NC(=O)c3ccnn3CC(C)(C)C#N)C(C3CC3)C3CC3)cc1COCC2 [compound 77]	6.82 to 7.30
Cc1[nH]nc2c1-c1cnc(NC(=O)[C@@H](NC(=O)/C(F)=C\C(C)C)C(C3CC3)C3CC3)cc1CN(C(C)C(F)(F)F)C(=O)C2 (mixture of isomers) [compound 254]	≥ 7.30
Cc1[nH]nc2c1-c1cnc(NC(=O)[C@@H](NC(=O)c3ccnn3C(C)C)C(C3CC3)C3CC3)cc1CN(C1(C(F)(F)F)CC1)C(=O)C2 [compound 208]	≥ 7.30
Cc1nonc1C(=O)N[C@H](C(=O)Nc1cc2c(cc1F)-c1c(n[nH]c1C)CCOC2)C(C1CC1)C1CC1 [compound 20]	≥ 7.30
Cc1[nH]nc2c1-c1cc(F)c(NC(=O)[C@@H](NC(=O)c3cnnn3C(C)C)C(C3CC3)C3CC3)cc1COCC2 [compound 231]	≥ 7.30
CC(C)=C(F)C(=O)N[C@H](C(=O)Nc1cc2c(cn1)-c1c(n[nH]c1C)CC(=O)N(C(C)C(F)(F)F)C2)C(C1CC1)C1CC1 (mixture of isomers) [compound 256]	≥ 7.30
Cc1[nH]nc2c1-c1cnc(NC(=O)[C@@H](NC(=O)c3ccnn3C(C)C)C(C3CC3)C3CC3)cc1CN(C(C)(C)C(F)(F)F)C(=O)C2 [compound 206]	≥ 7.30
Cc1[nH]nc2c1-c1cc(F)c(NC(=O)[C@@H](NC(=O)C3(F)CC3)C(C3CC3)C3CC3)cc1COCC2 [compound 122]	6.82 to 7.30
Cc1[nH]nc2c1-c1cnc(NC(=O)[C@@H](NC(=O)OC3CCC3)C(C3CC3)C3CC3)cc1COCC2 [compound 247]	6.82 to 7.30
Cc1[nH]nc2c1-c1cnc(NC(=O)C(NC(=O)c3conc3C(C)C)C(C3CC3)C3CC3)cc1CN(C(C)C(F)(F)F)C(=O)C2 (racemic) [compound 225]	≥ 7.30
Cc1[nH]nc2c1-c1cnc(NC(=O)[C@@H](NC(=O)c3ccnn3C(C)C)C(C3CC3)C3CC3)cc1CN(C1CC(F)(F)C1)CC2 [compound 203]	≥ 7.30
CCn1nccc1C(=O)N[C@H](C(=O)Nc1cc2c(cc1F)-c1c(n[nH]c1C)CCN(C)C2)C(C1CC1)C1CC1 [compound 155]	6.82 to 7.30
COC(=O)N[C@H](C(=O)Nc1cc2c(cc1F)-c1c(n[nH]c1C)CCOC2)C(C1CC1)C1CC1 [compound 121]	6.82 to 7.30
Cc1[nH]nc2c1-c1cc(F)c(NC(=O)[C@@H](NC(=O)c3ccnn3CCOC(F)F)C(C3CC3)C3CC3)cc1COCC2 [compound 107]	≥ 7.30
Cc1[nH]nc2c1-c1cc(F)c(NC(=O)[C@@H](NC(=O)c3ccnn3C3CCOCC3)C(C3CC3)C3CC3)cc1COCC2 [compound 74]	6.82 to 7.30
Cc1[nH]nc2c1-c1cc(F)c(NC(=O)[C@@H](NC(=O)c3ccnn3[C@@H](C)CO)C(C3CC3)C3CC3)cc1COCC2 [compound 55]	≥ 7.30
Cc1[nH]nc2c1-c1cc(F)c(NC(=O)[C@@H](NC(=O)c3ccnn3CCS(C)(=O)=O)C(C3CC3)C3CC3)cc1COCC2 [compound 63]	≥ 7.30
Cc1[nH]nc2c1-c1cc(F)c(NC(=O)[C@@H](NC(=O)c3ccnn3C(CF)CF)C(C3CC3)C3CC3)cc1COCC2 [compound 95]	≥ 7.30
Cc1[nH]nc2c1-c1cc(F)c(NC(=O)[C@@H](NC(=O)c3ccnn3C(C)C[S+](C)[O-])C(C3CC3)C3CC3)cc1COCC2 (single isomer, unassigned) [compound 43a]	6.82 to 7.30
